Test results as given in ChEMBL document CHEMBL3758092, “Discovery and preclinical evaluation of potent, orally bioavailable, metabolically stable cyclopropylindolobenzazepine acylsulfonamides as thumb site 1 inhibitors of the hepatitis c virus NS5B RNA-dependent, RNA polymerase” (Bioorg Med Chem Lett, 2016).

Legend:
Hepatitis C virus [1] = experiment: Antiviral activity against HCV1a by replicon assay; assay type: functional, organism-based, Hepacivirus hominis; conditions: subtype 1a
Hepatitis C virus [2] = experiment: Antiviral activity against HCV1b by replicon assay; assay type: functional, organism-based, Hepacivirus hominis; conditions: genotype 1b
[3] = Half life in human liver microsomes; assay type: ADME
[4] = Half life in cynomolgus monkey liver microsomes; assay type: ADME, Macaca fascicularis
[5] = Drug uptake in rat at 10 mg/kg, po liver after 4 hrs; assay type: ADME, organism-based; conditions: read-out: Drug uptake
[6] = Ratio of drug level in liver to plasma in rat at 10 mg/kg, po after 6 hrs; assay type: ADME, organism-based
[7] = Clearance in rat at 10 mg/kg, po; assay type: ADME, organism-based; conditions: in vivo
[8] = Oral bioavailability in rat at 10 mg/kg; assay type: ADME, organism-based; conditions: in vivo
[9] = molecular target: Voltage-gated inwardly rectifying potassium channel KCNH2 (Homo sapiens, UniProt Q12809); experiment: Inhibition of human ERG by FLIPR assay
Sequence of Voltage-gated inwardly rectifying potassium channel KCNH2 (Q12809 whole entry): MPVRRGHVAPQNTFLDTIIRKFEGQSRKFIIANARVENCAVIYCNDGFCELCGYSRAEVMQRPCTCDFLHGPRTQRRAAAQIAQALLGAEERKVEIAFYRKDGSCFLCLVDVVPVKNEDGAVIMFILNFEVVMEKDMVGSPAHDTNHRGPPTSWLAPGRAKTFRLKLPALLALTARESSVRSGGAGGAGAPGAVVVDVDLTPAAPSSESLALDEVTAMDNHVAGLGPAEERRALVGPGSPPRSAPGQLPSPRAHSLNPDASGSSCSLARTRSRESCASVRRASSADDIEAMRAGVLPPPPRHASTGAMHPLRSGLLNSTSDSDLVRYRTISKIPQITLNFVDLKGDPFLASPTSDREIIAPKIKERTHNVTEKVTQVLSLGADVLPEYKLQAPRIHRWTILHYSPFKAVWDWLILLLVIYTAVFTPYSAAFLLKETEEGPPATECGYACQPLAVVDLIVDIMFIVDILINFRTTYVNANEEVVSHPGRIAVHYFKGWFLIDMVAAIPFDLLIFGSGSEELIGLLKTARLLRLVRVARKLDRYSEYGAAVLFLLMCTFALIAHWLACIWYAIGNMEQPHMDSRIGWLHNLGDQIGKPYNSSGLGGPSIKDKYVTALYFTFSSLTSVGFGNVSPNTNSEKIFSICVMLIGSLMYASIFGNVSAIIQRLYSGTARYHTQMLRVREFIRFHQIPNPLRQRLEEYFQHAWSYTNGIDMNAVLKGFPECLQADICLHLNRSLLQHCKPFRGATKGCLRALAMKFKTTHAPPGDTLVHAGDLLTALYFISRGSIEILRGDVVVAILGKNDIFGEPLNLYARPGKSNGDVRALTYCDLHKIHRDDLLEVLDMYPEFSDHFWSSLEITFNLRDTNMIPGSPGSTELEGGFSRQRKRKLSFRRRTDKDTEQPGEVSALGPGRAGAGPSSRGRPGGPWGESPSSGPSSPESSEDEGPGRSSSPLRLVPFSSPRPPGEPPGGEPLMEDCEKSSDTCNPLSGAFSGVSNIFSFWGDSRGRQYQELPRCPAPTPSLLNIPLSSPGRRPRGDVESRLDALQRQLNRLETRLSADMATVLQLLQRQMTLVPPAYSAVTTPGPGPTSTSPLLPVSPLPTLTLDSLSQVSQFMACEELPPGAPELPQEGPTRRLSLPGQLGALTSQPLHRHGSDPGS

Hepatitis C virus [10] = experiment: Antiviral activity against HCV1b by replicon assay in presence of 40% human serum; assay type: functional, organism-based, Hepacivirus hominis; conditions: genotype 1b
[11] = Ratio of drug level in liver to plasma in rat at 10 mg/kg, po after 48 hrs; assay type: ADME, organism-based
in vitro = conditions: rat, liver microsomes
Description: Metabolic stability in rat liver microsomes assessed as compound remaining after 10 mins

Liver [12] = experiment: Drug uptake in rat at 10 mg/kg, po liver after 24 hrs; assay type: ADME, organism-based; conditions: in vivo, BLD = below limit of detection
[13] = Drug uptake in rat at 10 mg/kg, po liver after 6 hrs; assay type: ADME, organism-based; conditions: read-out: Drug uptake
Liver [14] = experiment: (§1) Drug uptake in rat at 10 mg/kg, po liver after 48 hrs; assay type: ADME, organism-based; conditions: in vivo, 48 h, BLD = below limit of detection
[15] = as §1; assay type: ADME, organism-based; conditions: liver, read-out: Drug uptake
[16] = AUC (0 to 24 hrs) in rat at 5 mg/kg, iv; assay type: ADME, organism-based; parameters: dose 5 mg/kg, time < 24 hr, route intravenous; conditions: in vivo
[17] = AUC (0 to 24 hrs) in rat at 10 mg/kg, po; assay type: ADME, organism-based; parameters: time < 24 hr, dose 10 mg/kg, route oral; conditions: in vivo
[18] = AUC (0 to 24 hrs) in dog at 1 mg/kg, iv; assay type: ADME, organism-based, Canis lupus familiaris; parameters: dose 1 mg/kg, time < 24 hr, route intravenous; conditions: in vivo
[19] = AUC (0 to 24 hrs) in dog at 3 mg/kg, po; assay type: ADME, organism-based, Canis lupus familiaris; parameters: time < 24 hr, dose 3 mg/kg, route oral; conditions: in vivo
[20] = AUC (0 to 24 hrs) in cynomolgus monkey at 1 mg/kg, iv; assay type: ADME, organism-based, Macaca fascicularis; parameters: time < 24 hr, dose 1 mg/kg, route intravenous; conditions: in vivo
[21] = AUC (0 to 24 hrs) in cynomolgus monkey at 3 mg/kg, po; assay type: ADME, organism-based, Macaca fascicularis; parameters: dose 3 mg/kg, time < 24 hr, route oral; conditions: in vivo
[22] = Oral bioavailability in dog at 3 mg/kg; assay type: ADME, organism-based, Canis lupus familiaris; conditions: in vivo
[23] = Oral bioavailability in cynomolgus monkey at 3 mg/kg; assay type: ADME, organism-based, Macaca fascicularis; conditions: in vivo
[24] = Solubility in mid-range pH solutions; assay type: physicochemical
[25] = Permeability of the compound at pH 7.4 by PAMPA; assay type: ADME; conditions: read-out: permeability
[26] = Plasma concentration in rat at 10 mg/kg, po after 6 hrs; assay type: ADME, organism-based
[27] = Ratio of drug level in liver to plasma in rat at 10 mg/kg, po after 4 hrs; assay type: ADME, organism-based
[28] = Ratio of drug level in liver to plasma in rat at 10 mg/kg, po after 24 hrs; assay type: ADME, organism-based

| SMILES | EC50 (Hepatitis C virus [1]) [nM] | EC50 (Hepatitis C virus [2]) [nM] | half-life [3] [min] | half-life [4] [min] | Kp at 6 h [6] | CL/F [7] [mL/min/kg] | bioavailability [8] [%] | concentration at 6 h [13] [µM] | further results |
| --- | --- | --- | --- | --- | --- | --- | --- | --- | --- |
| COc1ccc2c(c1)C1CC1(C(=O)N1C3CCC1CN(C)C3)Cn1c-2c(C2CCCCC2)c2ccc(C(=O)NS(=O)(=O)C3CC3)cc21 (racemic) | 7 | 15 | 179 | 130 | 66 | 26.9 | 4.9 | – | concentration at 4 h [5]: 6.4 µM |
| COc1ccc2c(c1)[C@@H]1C[C@]1(C(=O)N1C3CCC1CN(C)C3)Cn1c-2c(C2CCCCC2)c2ccc(C(=O)NS(=O)(=O)CC(C)C)cc21 | – | 2 | > 72 | 24.4 | 47 | – | 41 | – | IC50 [9]: 16600 nM; EC50 (Hepatitis C virus [10]): 80 nM; Kp at 48 h [11]: 4; remaining at 10 min (in vitro): 100% |
| COc1ccc2c(c1)C1CC1(C(=O)N1C3CCC1CN(C)C3)Cn1c-2c(C2CCCCC2)c2ccc(C(=O)NS(=O)(=O)C(C)(C)C)cc21 (racemic) | 8 | 23 | > 60 | 44 | – | 13.5 | 12.4 | – | Drug uptake (Liver [12]): BLD |
| COc1ccc2c(c1)C1CC1(C(=O)N1C3CCC1CN(C)C3)Cn1c-2c(C2CCCCC2)c2ccc(C(=O)NS(=O)(=O)CC(C)C)cc21 (racemic) | 14 | 22 | > 60 | 24.5 | 150 | 9.2 | – | 88.3 | – |
| COc1ccc2c(c1)C1CC1(C(=O)N1C3CCC1CN(C)C3)Cn1c-2c(C2CCCCC2)c2ccc(C(=O)NS(=O)(=O)CC3CCC3)cc21 (racemic) | 15 | 56 | 45 | 9 | – | 13.3 | 19.1 | – | Drug uptake (Liver [14]): BLD |
| COc1ccc2c(c1)[C@@H]1C[C@]1(C(=O)N1C3CCC1CN(C)C3)Cn1c-2c(C2CCCCC2)c2ccc(C(=O)NS(=O)(=O)C3CCC3)cc21 | – | 5 | 70.5 | 65.5 | – | 13.4 | 28 | – | concentration at 48 h [15]: 0.07 µM; EC50 (Hepatitis C virus [10]): 70 nM; remaining at 10 min (in vitro): 87.8% |
| COc1ccc2c(c1)C1CC1(C(=O)N1C3CCC1CN(C)C3)Cn1c-2c(C2CCCCC2)c2ccc(C(=O)NS(C)(=O)=O)cc21 (racemic) | 13 | 18 | 179 | 80 | – | 54.4 | 3.6 | – | Drug uptake (Liver [12]): BLD |
| CCS(=O)(=O)NC(=O)c1ccc2c(C3CCCCC3)c3n(c2c1)CC1(C(=O)N2C4CCC2CN(C)C4)CC1c1cc(OC)ccc1-3 (racemic) | 17 | 23 | 206 | 72 | 108 | 40 | – | 7.9 | – |
| COc1ccc2c(c1)[C@@H]1C[C@]1(C(=O)N1C3CCC1CN(C)C3)Cn1c-2c(C2CCCCC2)c2ccc(C(=O)NS(=O)(=O)C(C)C)cc21 | 7 | – | – | – | 20 | – | 65 | – | EC50 (Hepatitis C virus [10]): 20 nM; AUC(0-t) at 24 h [16]: 18 µM·h; AUC(0-t) at 24 h [17]: 16 µM·h; AUC(0-t) at 24 h [18]: 36 µM·h; AUC(0-t) at 24 h [19]: 124 µM·h; AUC(0-t) at 24 h [20]: 7 µM·h; AUC(0-t) at 24 h [21]: 5.4 µM·h; bioavailability [22]: 100%; bioavailability [23]: 25%; Kp at 48 h [11]: 11; solubility [24]: soluble |
| COc1ccc2c(c1)C1CC1(C(=O)N1C3CCC1CN(C)C3)Cn1c-2c(C2CCCCC2)c2ccc(C(=O)NS(=O)(=O)CC3CC3)cc21 (racemic) | 5 | 22 | 200 | 39 | – | 19.6 | 13.7 | – | concentration at 48 h [15]: 0.15 µM |
| COc1ccc2c(c1)C1CC1(C(=O)N1C3CCC1CN(C)C3)Cn1c-2c(C2CCCCC2)c2ccc(C(=O)NS(=O)(=O)C(C)C)cc21 (racemic) | 20 | 28 | – | – | 13 | – | 65 | 26.2 | – |
| COc1ccc2c(c1)C1CC1(C(=O)N1C3CCC1CN(C)C3)Cn1c-2c(C2CCCCC2)c2ccc(C(=O)NS(=O)(=O)CC(C)(C)C)cc21 (racemic) | 23 | 41 | 48 | 8.4 | 14.5 | 4.1 | – | 65.3 | – |
| CCCS(=O)(=O)NC(=O)c1ccc2c(C3CCCCC3)c3n(c2c1)CC1(C(=O)N2C4CCC2CN(C)C4)CC1c1cc(OC)ccc1-3 (racemic) | 8 | 21 | 112 | 37 | 120 | 16.5 | – | 13.1 | – |
| CCC(C)S(=O)(=O)NC(=O)c1ccc2c(C3CCCCC3)c3n(c2c1)CC1(C(=O)N2C4CCC2CN(C)C4)CC1c1cc(OC)ccc1-3 (racemic) | 15 | 37 | 18 | 38 | – | – | – | – | – |
| COc1ccc2c(c1)C1CC1(C(=O)N1C3CCC1CN(C)C3)Cn1c-2c(C2CCCCC2)c2ccc(C(=O)NS(=O)(=O)N3CCC3)cc21 (racemic) | 12 | 24 | 135 | 55 | – | – | – | 0.8 | Papp [25]: 66.5 ×10⁻⁶ cm/s; concentration at 6 h [26]: 0.02 µM; remaining at 10 min (in vitro): 100% |
| COc1ccc2c(c1)C1CC1(C(=O)N1C3CCC1CN(C)C3)Cn1c-2c(C2CCCCC2)c2ccc(C(=O)NS(=O)(=O)N(C)C)cc21 (racemic) | – | 12 | 76 | – | – | – | – | – | Papp [25]: 71.3 ×10⁻⁶ cm/s; concentration at 4 h [5]: 69 µM; remaining at 10 min (in vitro): 100% |
| COc1ccc2c(c1)C1CC1(C(=O)N1C3CCC1CN(C)C3)Cn1c-2c(C2CCCCC2)c2ccc(C(=O)NS(=O)(=O)C3CCC3)cc21 (racemic) | 23 | 40 | > 60 | 46.5 | 67 | 5.2 | – | 38.8 | – |
| COc1ccc2c(c1)[C@@H]1C[C@]1(C(=O)N1[C@@H]3CC[C@H]1CN(C)C3)Cn1c-2c(C2CCCCC2)c2ccc(C(=O)NS(=O)(=O)N(C)C)cc21 [BECLABUVIR] | – | – | 45 | – | 10 | – | 43 | – | IC50 [9]: 26000 nM; Kp at 4 h [27]: 2; EC50 (Hepatitis C virus [10]): 40 nM; Kp at 24 h [28]: 10; remaining at 10 min (in vitro): 100% |
| COc1ccc2c(c1)[C@H]1C[C@@]1(C(=O)N1C3CCC1CN(C)C3)Cn1c-2c(C2CCCCC2)c2ccc(C(=O)NS(=O)(=O)C(C)C)cc21 | 196 | 148 | – | – | – | – | – | – | – |
| CCN(C)S(=O)(=O)NC(=O)c1ccc2c(C3CCCCC3)c3n(c2c1)CC1(C(=O)N2C4CCC2CN(C)C4)CC1c1cc(OC)ccc1-3 (racemic) | 14 | 13 | 27.3 | – | – | – | – | 36.4 | Papp [25]: 56.1 ×10⁻⁶ cm/s; concentration at 6 h [26]: 0.178 µM; remaining at 10 min (in vitro): 94% |
| COc1ccc2c(c1)C1CC1(C(=O)N1C3CCC1CN(C)C3)Cn1c-2c(C2CCCCC2)c2ccc(C(=O)NS(=O)(=O)C3CCCC3)cc21 (racemic) | 24 | 62 | > 60 | 18.2 | 36 | 7.7 | – | 35.3 | – |
| CCCCS(=O)(=O)NC(=O)c1ccc2c(C3CCCCC3)c3n(c2c1)CC1(C(=O)N2C4CCC2CN(C)C4)CC1c1cc(OC)ccc1-3 (racemic) | 15 | 45 | 73 | 19 | – | – | – | – | – |
